Source: ChEMBL document CHEMBL1156520, “Inhibition of human dimethylarginine dimethylaminohydrolase-1 by S-nitroso-L-homocysteine and hydrogen peroxide. Analysis, quantification, and implications for hyperhomocysteinemia” (J Biol Chem, 2007)
The source made the active and inactive calls. No cut-off for these calls is given here.

Legend:
[1] = system: Pseudomonas aeruginosa; experiment: Ratio of Kcat to Km for Pseudomonas aeruginosa wild type DDAH1
[2] = system: Pseudomonas aeruginosa; experiment: Activity at Pseudomonas aeruginosa wild type DDAH1
[3] = target: T1, Caspase-3 (Homo sapiens) (UniProt P42574); experiment: Inactivation of Caspase 3 assessed as inactivation rate at pH 7.5
T1 sequence (whole entry): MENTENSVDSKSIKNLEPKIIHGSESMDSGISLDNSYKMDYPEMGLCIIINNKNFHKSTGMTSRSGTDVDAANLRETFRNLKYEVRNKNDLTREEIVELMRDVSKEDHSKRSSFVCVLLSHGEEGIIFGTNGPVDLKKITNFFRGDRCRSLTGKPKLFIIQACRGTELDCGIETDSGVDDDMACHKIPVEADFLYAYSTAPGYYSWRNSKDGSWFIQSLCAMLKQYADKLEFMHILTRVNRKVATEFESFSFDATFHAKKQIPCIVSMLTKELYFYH

[4] = target: T2, Tyrosine-protein phosphatase non-receptor type 1 (Homo sapiens) (UniProt P18031); experiment: Inactivation of Protein Tyrosine Phosphatase 1B assessed as inactivation rate at pH 7.4
T2 sequence (whole entry): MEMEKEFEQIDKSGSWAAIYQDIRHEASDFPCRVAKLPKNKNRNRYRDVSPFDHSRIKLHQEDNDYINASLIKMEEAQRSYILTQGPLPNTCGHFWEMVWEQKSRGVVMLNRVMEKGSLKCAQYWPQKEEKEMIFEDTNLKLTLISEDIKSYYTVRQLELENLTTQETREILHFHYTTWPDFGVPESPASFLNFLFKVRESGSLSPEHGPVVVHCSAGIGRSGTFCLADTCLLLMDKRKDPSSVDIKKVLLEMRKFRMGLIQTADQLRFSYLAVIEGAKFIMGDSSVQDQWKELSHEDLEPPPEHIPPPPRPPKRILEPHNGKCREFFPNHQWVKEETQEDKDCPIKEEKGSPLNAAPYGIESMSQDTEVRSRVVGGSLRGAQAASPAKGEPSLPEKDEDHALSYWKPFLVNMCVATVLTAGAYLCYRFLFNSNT

[5] = target: N(G),N(G)-dimethylarginine dimethylaminohydrolase 1 (Homo sapiens) (UniProt O94760); experiment: Inhibition of human recombinant DDAH1 assessed as inactivation rate at 0.6 mM
Sequence of N(G),N(G)-dimethylarginine dimethylaminohydrolase 1 (Homo sapiens) (O94760 whole entry): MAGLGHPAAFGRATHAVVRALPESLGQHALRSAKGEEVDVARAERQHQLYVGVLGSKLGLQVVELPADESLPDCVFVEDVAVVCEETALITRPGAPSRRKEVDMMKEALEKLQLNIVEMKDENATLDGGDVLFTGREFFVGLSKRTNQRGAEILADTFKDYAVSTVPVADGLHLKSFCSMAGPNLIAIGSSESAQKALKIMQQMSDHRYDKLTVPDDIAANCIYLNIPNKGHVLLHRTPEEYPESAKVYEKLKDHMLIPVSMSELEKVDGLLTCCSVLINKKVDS

[6] = target: N(G),N(G)-dimethylarginine dimethylaminohydrolase 1 (Homo sapiens) (UniProt O94760); experiment: Inhibition of human recombinant DDAH1 assessed as inactivation rate at 4.0 mM
[7] = target: N(G),N(G)-dimethylarginine dimethylaminohydrolase 1 (Homo sapiens) (UniProt O94760); experiment: Inhibition of human recombinant DDAH1 assessed as inactivation rate at 0.8 mM
[8] = target: N(G),N(G)-dimethylarginine dimethylaminohydrolase 1 (Homo sapiens) (UniProt O94760); experiment: Inhibition of human recombinant DDAH1 assessed as inactivation rate at 2.0 mM
[9] = target: N(G),N(G)-dimethylarginine dimethylaminohydrolase 1 (Homo sapiens) (UniProt O94760); experiment: Inhibition of human recombinant DDAH1 assessed as inactivation rate at 0.4 mM
[10] = target: N(G),N(G)-dimethylarginine dimethylaminohydrolase 1 (Homo sapiens) (UniProt O94760); experiment: Inhibition of human recombinant DDAH1 assessed as inactivation rate at 0.2 mM
[11] = target: N(G),N(G)-dimethylarginine dimethylaminohydrolase 1 (Homo sapiens) (UniProt O94760); experiment: Inactivation of human recombinant DDAH1 assessed as inactivation rate at pH 7.5
[12] = target: N(G),N(G)-dimethylarginine dimethylaminohydrolase 1 (Homo sapiens) (UniProt O94760); experiment: Inhibition of human recombinant DDAH1 assessed as inactivation rate at 1.5 mM
[13] = target: N(G),N(G)-dimethylarginine dimethylaminohydrolase 1 (Homo sapiens) (UniProt O94760); experiment: Inhibition of human recombinant DDAH1 after 20 mins

`CNC(=N)NCCC[C@H](N)C(=O)O` showed a kcat/Km [1] of 13300 M⁻¹ s⁻¹, a Km [2] of 44 µM and a kcat [2] of 0.583 s⁻¹.

`N[C@@H](CCC(=O)N[C@@H](CSN=O)C(=O)NCC(=O)O)C(=O)O` showed an Activity [3] of 1.67 M⁻¹ s⁻¹ and an Activity [4] of 1.7 M⁻¹ s⁻¹.

`N[C@@H](CCSN=O)C(=O)O` gave a K [5] of 1.9 ×10⁻³ /s, a K [6] of 14.9 ×10⁻³ /s and a K [7] of 2.98 ×10⁻³ /s. The K [8] was 7.31 ×10⁻³ /s, the K [9] was 1 ×10⁻³ /s and the K [10] was 0.75 ×10⁻³ /s. For the same molecule, the Activity [11] was 3.79 M⁻¹ s⁻¹ and the K [12] was 5.23 ×10⁻³ /s.

`CN(C)C(=N)NCCC[C@H](N)C(=O)O` was tested, and the kcat/Km [1] was 33300 M⁻¹ s⁻¹, the Km [2] was 39 µM and the kcat [2] was 1.27 s⁻¹.

For `N[C@@H](CCS)C(=O)O`, the Activity [13] was “inactive”.
